Reference: patent publication US11020395B2, “Cycloalkyl substituted triazole compounds as agonists of the APJ receptor” (AMGEN INC., priority 2016, dated 2021)

Target: human APJ receptor (Homo sapiens (Human), UniProt P35414)
Assay: [35S]GTPγS binding assay on membranes from CHO cells stably expressing human APJ receptor
Type: biochemical
Conditions: [35S]GTPγS SPA, read-out: Activity hAPJ SPA EC50 IP
In short: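 Agonist-stimulated [35S]GTPγS binding measured on membranes of a stable human APJ CHO line, 90 min at room temperature, with GDP, MgCl2 and NaCl levels optimized beforehand. Means of independent runs fitted by non-linear regression to give EC50.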

Sequence of human APJ receptor (P35414 whole entry): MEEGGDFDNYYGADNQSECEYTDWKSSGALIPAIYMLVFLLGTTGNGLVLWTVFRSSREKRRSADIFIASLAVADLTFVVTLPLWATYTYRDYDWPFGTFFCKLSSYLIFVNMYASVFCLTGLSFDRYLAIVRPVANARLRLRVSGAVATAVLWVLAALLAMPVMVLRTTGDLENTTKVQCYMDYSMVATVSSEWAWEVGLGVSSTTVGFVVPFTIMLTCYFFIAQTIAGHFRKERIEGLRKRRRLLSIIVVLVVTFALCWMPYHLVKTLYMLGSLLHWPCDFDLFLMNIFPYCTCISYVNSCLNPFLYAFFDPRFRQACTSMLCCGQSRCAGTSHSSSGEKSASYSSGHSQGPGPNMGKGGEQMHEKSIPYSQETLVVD

Compound | EC50
COc1cccc(OC)c1-n1c(NS(=O)(=O)[C@@H](C)[C@@H](OC(C)C)c2ncc(C)cn2)nnc1[C@@H]1CCC(F)(F)C1 (mixture of isomers) [Example 232.0, (1S,2S)-N-(5-((1R)-3,3-difluorocyclopentyl)-4-(2,6-dimethoxyphenyl)-4H-1,2,4-triazol-3-yl)-1-(5-methyl-2-pyrimidinyl)-1-(2-propanyloxy)-2-propanesulfonamide and (1S,2S)-N-(5-((1S)-3,3-difluorocyclopentyl)-4-(2,6-dimethoxyphenyl)-4H-1,2,4-triazol-3-yl)-1-(5-methyl-2-pyrimidinyl)-1-(2-propanyloxy)-2-propanesulfonamide] | 0.042 µM
CO[C@H](c1ncc(Cl)cn1)[C@H](C)S(=O)(=O)Nc1nnc([C@H]2C[C@H](CO)C2)n1C(C)C (single isomer, unassigned) [Example 136.0, (1R,2S)-1-(5-chloro-2-pyrimidinyl)-N-(5-trans-3-(hydroxymethyl)cyclobutyl)-4-(2-propanyl)-4H-1,2,4-triazol-3-yl)-1-methoxy-2-propanesulfonamide or (1R,2S)-1-(5-chloro-2-pyrimidinyl)-N-(5-(cis-3-(hydroxymethyl)cyclobutyl)-4-(2-propanyl)-4H-1,2,4-triazol-3-yl)-1-methoxy-2-propanesulfonamide] | 3.2 µM
(2S,3R)-3-(5-chloropyrimidin-2-yl)-N-(4-(2,6-dimethoxyphenyl)-5-((S)-spiro[2.2]pentan-1-yl)-4H-1,2,4-triazol-3-yl)butane-2-sulfonamide or (2S,3R)-3-(5-chloropyrimidin-2-yl)-N-(4-(2,6-dimethoxyphenyl)-5-((R)-spiro[2.2]pentan-1-yl)-4H-1,2,4-triazol-3-yl)butane-2-sulfonamide [Example 218.0] | 0.0011 µM
(1R,2S)-1-(5-chloropyrimidin-2-yl)-N-(4-(4,6-dimethoxypyrimidin-5-yl)-5-((R)-6-oxaspiro[2.5]octan-1-yl)-4H-1,2,4-triazol-3-yl)-1-methoxypropane-2-sulfonamide or (1R,2S)-1-(5-chloropyrimidin-2-yl)-N-(4-(4,6-dimethoxypyrimidin-5-yl)-5-((S)-6-oxaspiro[2.5]octan-1-yl)-4H-1,2,4-triazol-3-yl)-1-methoxypropane-2-sulfonamide [Example 103.0] | 0.039 µM
COc1cccc(OC)c1-n1c(NS(=O)(=O)[C@@H](C)[C@@H](OC(C)C)c2ncc(C)cn2)nnc1[C@@H]1CCC[C@@H]1OC (single isomer, unassigned) [Example 235.0] | 0.15 µM
CO[C@H](c1ncc(Cl)cn1)[C@H](C)S(=O)(=O)Nc1nnc([C@H]2C[C@H](CO)C2)n1C1CC1 (single isomer, unassigned) [Example 134.0, (1R,2S)-1-(5-chloro-2-pyrimidinyl)-N-(4-cyclopropyl-5-(trans-3-(hydroxymethyl)cyclobutyl)-4H-1,2,4-triazol-3-yl)-1-methoxy-2-propanesulfonamide or (1R,2S)-1-(5-chloro-2-pyrimidinyl)-N-(4-cyclopropyl-5-(cis-3-(hydroxymethyl)cyclobutyl)-4H-1,2,4-triazol-3-yl)-1-methoxy-2-propanesulfonamide] | 1.33 µM
COc1cccc(OC)c1-n1c(NS(=O)(=O)[C@@H](C)[C@H](OC)c2ncc(Cl)cn2)nnc1[C@H]1C[C@@](C)(F)C1 (single isomer, unassigned) [Example 198.0, (1R,2S)-1-(5-chloropyrimidin-2-yl)-N-(4-(2,6-dimethoxyphenyl)-5-((1s,3R)-3-fluoro-3-methylcyclobutyl)-4H-1,2,4-triazol-3-yl)-1-methoxypropane-2-sulfonamide or ((1R,2S)-1-(5-chloropyrimidin-2-yl)-N-(4-(2,6-dimethoxyphenyl)-5-((1r,3S)-3-fluoro-3-methylcyclobutyl)-4H-1,2,4-triazol-3-yl)-1-methoxypropane-2-sulfonamide] | 0.0037 µM
(1R,2S)-1-(5-chloropyrimidin-2-yl)-N-(4-(4,6-dimethoxypyrimidin-5-yl)-5-((R)-spiro[2.2]pentan-1-yl)-4H-1,2,4-triazol-3-yl)-1-methoxypropane-2-sulfonamideor (1R,2S)-1-(5-chloropyrimidin-2-yl)-N-(4-(4,6-dimethoxypyrimidin-5-yl)-5-((S)-spiro[2.2]pentan-1-yl)-4H-1,2,4-triazol-3-yl)-1-methoxypropane-2-sulfonamide [Example 105.0] | 0.00092 µM
COc1cccc(OC)c1-n1c(NS(=O)(=O)[C@@H](C)[C@@H](OC(C)C)c2ncc(C)cn2)nnc1C1CCC1 [Example 142.0] | 0.0051 µM
(1R,2S)-1-(5-chloropyrimidin-2-yl)-N-(4-(2,6-dimethoxyphenyl)-5-((S)-spiro[2.2]pentan-1-yl)-4H-1,2,4-triazol-3-yl)-1-methoxypropane-2-sulfonamide or (1R,2S)-1-(5-chloropyrimidin-2-yl)-N-(4-(2,6-dimethoxyphenyl)-5-((R)-spiro[2.2]pentan-1-yl)-4H-1,2,4-triazol-3-yl)-1-methoxypropane-2-sulfonamide [Example 222.0] | 0.024 µM
COc1ncnc(OC)c1-n1c(NS(=O)(=O)[C@@H](C)[C@H](OC)c2ncc(Cl)cn2)nnc1[C@H]1CC[C@H]1C(F)F (racemic) [Example 146.0] | 0.026 µM
(1R,2S)-1-(5-chloropyrimidin-2-yl)-N-(5-((R)-2,2-dimethylcyclopropyl)-4-(tetrahydro-2H-pyran-4-yl)-4H-1,2,4-triazol-3-yl)-1-methoxypropane-2-sulfonamide or (1R,2S)-1-(5-chloropyrimidin-2-yl)-N-(5-((S)-2,2-dimethylcyclopropyl)-4-(tetrahydro-2H-pyran-4-yl)-4H-1,2,4-triazol-3-yl)-1-methoxypropane-2-sulfonamide [Example 20.0] | 0.84 µM
COc1ncnc(OC)c1-n1c(NS(=O)(=O)[C@@H](C)[C@H](C)c2ccc(Cl)cn2)nnc1C1CCC1 [Example 87.0, (2S,3R)-3-(5-chloro-2-pyridinyl)-N-(5-cyclobutyl-4-(4,6-dimethoxy-5-pyrimidinyl)-4H-1,2,4-triazol-3-yl)-2-butanesulfonamide] | 0.002 µM
COc1cccc(OC)c1-n1c(NS(=O)(=O)[C@@H](C)[C@H](OC)c2ncc(Cl)cn2)nnc1[C@H]1C[C@H](C)C1 [Example 148.0, (1R,2S)-1-(5-chloropyrimidin-2-yl)-N-(4-(2,6-dimethoxyphenyl)-5-((1r,3S)-3-methylcyclobutyl)-4H-1,2,4-triazol-3-yl)-1-methoxypropane-2-sulfonamide and (1R,2S)-1-(5-chloropyrimidin-2-yl)-N-(4-(2,6-dimethoxyphenyl)-5-((1r,3R)-3-methylcyclobutyl)-4H-1,2,4-triazol-3-yl)-1-methoxypropane-2-sulfonamide] | 0.0011 µM
COc1ncnc(OC)c1-n1c(NS(=O)(=O)[C@@H](C)[C@H](OC)c2ncc(Cl)cn2)nnc1[C@H]1CC[C@@H](C(F)F)CC1 (single isomer, unassigned) [Example 144.0, (1R,2S)-1-(5-chloro-2-pyrimidinyl)-N-(5-(cis-4-(difluoromethyl)cyclohexyl)-4-(4,6-dimethoxy-5-pyrimidinyl)-4H-1,2,4-triazol-3-yl)-1-methoxy-2-propanesulfonamide or (1R,2S)-1-(5-chloro-2-pyrimidinyl)-N-(5-(trans-4-(difluoromethyl)cyclohexyl)-4-(4,6-dimethoxy-5-pyrimidinyl)-4H-1,2,4-triazol-3-yl)-1-methoxy-2-propanesulfonamide] | 0.62 µM
COc1ncnc(OC)c1-n1c(NS(=O)(=O)[C@@H](C)[C@H](OC)c2ncc(Cl)cn2)nnc1C1CC(C)(C)C1 [Example 120.0] | 0.0031 µM
COc1cccc(OC)c1-n1c(NS(=O)(=O)[C@@H](C)[C@H](OC)c2ncc(Cl)cn2)nnc1C1CC2(CC2)C1 [Example 239.0, (1R,2S)-1-(5-chloro-2-pyrimidinyl)-N-(4-(2,6-dimethoxyphenyl)-5-(spiro[2.3]hexan-5-yl)-4H-1,2,4-triazol-3-yl)-1-methoxy-2-propanesulfonamide] | 0.00064 µM
COc1ncnc(OC)c1-n1c(NS(=O)(=O)[C@@H](C)[C@H](OC)c2ncc(Cl)cn2)nnc1[C@H]1C[C@@H](C(F)(F)F)C1 (single isomer, unassigned) [Example 178.0, (1R,2S)-1-(5-chloropyrimidin-2-yl)-N-(4-(4,6-dimethoxypyrimidin-5-yl)-5-((1s,3R)-3-(trifluoromethyl)cyclobutyl)-4H-1,2,4-triazol-3-yl)-1-methoxypropane-2-sulfonamide or (1R,2S)-1-(5-chloropyrimidin-2-yl)-N-(4-(4,6-dimethoxypyrimidin-5-yl)-5-((1r,3S)-3-(trifluoromethyl)cyclobutyl)-4H-1,2,4-triazol-3-yl)-1-methoxypropane-2-sulfonamide] | 0.0065 µM
COc1cccc(OC)c1-n1c(NS(=O)(=O)[C@@H](C)[C@H](C)c2ncc(C)cn2)nnc1[C@H]1C[C@H](Cl)C1 (single isomer, unassigned) [Example 193.0, (2S,3R)-N-(5-((1r,3S)-3-chlorocyclobutyl)-4-(2,6-dimethoxyphenyl)-4H-1,2,4-triazol-3-yl)-3-(5-methylpyrimidin-2-yl)butane-2-sulfonamide or (2S,3R)-N-(5-((1s,3R)-3-chlorocyclobutyl)-4-(2,6-dimethoxyphenyl)-4H-1,2,4-triazol-3-yl)-3-(5-methylpyrimidin-2-yl)butane-2-sulfonamide] | 0.01 µM
COc1cccc(OC)c1-n1c(NS(=O)(=O)[C@@H](C)[C@H](OC)c2cnc(C)cn2)nnc1C1CCC1 [Example 138.0] | 0.027 µM
COc1ncnc(OC)c1-n1c(NS(=O)(=O)[C@@H](C)[C@H](C)c2ncc(C)cn2)nnc1C1CCCCC1 [Example 5.0, (2S,3R)-N-(5-cyclohexyl-4-(4,6-dimethoxy-5-pyrimidinyl)-4H-1,2,4-triazol-3-yl)-3-(5-methyl-2-pyrimidinyl)-2-butanesulfonamide] | 0.0094 µM
